Experimental data as given in US20190015379A1, “USE OF DIANHYDROGALACTITOL AND ANALOGS AND DERIVATIVES THEREOF, TOGETHER WITH RADIATION, TO TREAT NON-SMALL-CELL CARCINOMA OF THE LUNG AND GLIOBLASTOMA MULTIFORME AND SUPPRESS PROLIFERATION OF CANCER STEM CELLS” (DelMar Pharmaceuticals, Inc., priority 2014, published 2019).

Key:
[1] = tested on: recurrent glioblastoma multiforme (GBM); assay: Phase I/II dose-escalation study, tumor response in GBM patients; format: in vivo, human
Source text: The methodology of the study reported in this Example is as follows: An open-label, single arm Phase I/II dose-escalation study designed to evaluate the safety, tolerability, pharmacokinetics and anti-tumor activity of dianhydrogalactitol in patients with: (i) histologically confirmed initial diagnosis of primary WHO Grade IV malignant GBM, now recurrent, or (ii) progressive secondary brain tumor, having failed standard brain radiotherapy, and with brain tumor progression after at least one line of systemic therapy. The study utilizes a 3+3 dose escalation design, until the MTD or the maximum specified dose is reached. Patients receive dianhydrogalactitol intravenously at the assigned dose on days 1, 2, and 3 of each 21-day treatment cycle. In Phase II, additional patients will be treated at the MTD (or other selected optimum Phase II dose) to measure tumor responses. All patients enrolled have previously been treated with surgery and/or radiation, if appropriate, and must have failed both bevacizumab and TMZ, unless contraindicated. For these studies, the following is a summary of the inclusion criteria: (1) Patients must be greater than or equal to 18 years old. (2) There is a histologically confirmed initial diagnosis of primary WHO Grade IV malignant glioma (glioblastoma), now recurrent, or progressive secondary brain tumor, the patient has failed standard brain radiotherapy, and the patient has brain tumor progression after at least one line of systemic therapy. […] (4) The patient must have a predicted life expectancy of at least 12 weeks. The following is a summary of the exclusion criteria: (1) There is a current history of neoplasm other than the entry diagnosis. Patients with previous cancers treated and cured with local therapy alone may be considered. (2) There is evidence of leptomeningeal spread of disease. […] (4) The patient had undergone prior treatment with intracerebral agents. […] (6) The patient is being administered concomitant medications that are strong inhibitors of cytochrome P450 and CYP3A up to 14 days before Cycle 1, Day 1 (pimozide, diltiazem, erythromycin, clarithromycin, and quinidine, and amiodarone up to 90 days before.
Enrollment and evaluation of Cohort 7 (40 mg/m^2) is ongoing. Higher doses may be enrolled subject to completion of mandated safety observation period with Cohort 6 (30 mg/m^2). Patients enrolled present with refractory progressive GBM and a dire prognosis. […] The primary endpoint of this portion of the study is to determine a modernized dosing regimen for advancement to registration-directed clinical trials. […] In this design, it is not possible to perform a rigorous assessment of patient benefit due to slowed tumor growth. Tumor volume is assessed during the study based on RANO criteria. […] Outcomes analysis of cohort 6 is ongoing. These preliminary data support continued exploration of higher dose cohorts.

[2] = Phase I/II dose-escalation study, plasma pharmacokinetics; format: in vivo, human
Source text: The methodology of the study reported in this Example is as follows: An open-label, single arm Phase I/II dose-escalation study designed to evaluate the safety, tolerability, pharmacokinetics and anti-tumor activity of dianhydrogalactitol in patients with: (i) histologically confirmed initial diagnosis of primary WHO Grade IV malignant GBM, now recurrent, or (ii) progressive secondary brain tumor, having failed standard brain radiotherapy, and with brain tumor progression after at least one line of systemic therapy. The study utilizes a 3+3 dose escalation design, until the MTD or the maximum specified dose is reached. Patients receive dianhydrogalactitol intravenously at the assigned dose on days 1, 2, and 3 of each 21-day treatment cycle. In Phase II, additional patients will be treated at the MTD (or other selected optimum Phase II dose) to measure tumor responses. All patients enrolled have previously been treated with surgery and/or radiation, if appropriate, and must have failed both bevacizumab and TMZ, unless contraindicated. For these studies, the following is a summary of the inclusion criteria: (1) Patients must be greater than or equal to 18 years old. […]

Substance: dianhydrogalactitol
- tumor response in cohort 6 ([1]; 30 mg/m^2, one of two patients, after 1 cycle of treatment): stable disease
- Tumor Response, PR (number of patients) ([1]; GBM, n = 8): PR (1); SD (1)
- Tumor Response, SD (number of patients) ([1]; GBM, n = 8): PR (1); SD (1)
- Tumor Response, Overall ([1]; GBM, n = 8, prior Surgery/XRT/TMZ/BEV): Overall = 25%
- MRI scan findings ([1]; Patient #26, T=64 days versus T=0, after two cycles): Thick confluent regions of abnormal enhancement have diminished
- pharmacokinetics, dose dependence ([2]; dose cohorts of the current trial): linear
- plasma half-life ([2]; i.v., patients): 1 to 2 h
